# Source: patent US20230295181A1, “INHIBITOR OF APOPTOSIS (IAP) PROTEIN ANTAGONISTS” (Sanford Burnham Prebys Medical Discovery Institute, priority 2020, published 2023)
# Where a name gives a salt, the structure may show the parent alone.
# System: SKOV-3 cancer cell lines
# Assay: SKOV-3 cell viability after treatment with 10 μM test compound
# Assay type: cell-based
# Details: 10 micromolar test compound
# Procedure: SKOV-3 cancer cell lines were treated with a test compound, either as a pure enantiomer or a mixture of stereoisomers, at a concentration of 10 μM. Cell viability was evaluated following treatment with a compound as disclosed in Table B. Viability of cancer cells following treatment is indicated according to the following legend:
# A=0-25% viability B=26-50% viability C=>50% viability
row,Compound,% viability after treatment with 10 micromolar of test compound (SKOV-3 cells)
1,CN[C@@H](C)C(=O)N[C@H]1Cc2cc(OC)ccc2[C@H]2CC(C)(C)C(C(=O)N[C@@H]3CCCc4ccccc43)N2C1=O (some centres unmarked) [Compound 7],B (B=26-50% viability)
2,CN[C@@H](C)C(=O)N[C@H]1Cc2cc(OC)ccc2[C@H]2CC(C)(C)C(C(=O)N[C@@H]3CCCc4ccccc43)N2C1=O (some centres unmarked) [Compound 34],C (C=>50% viability)

# Same assay, conditions: 10 micromolar test compound, hydrochloride
row,Compound,% viability after treatment with 10 micromolar of test compound (SKOV-3 cells)
1,"C=CCC1(CC=C)C[C@@H]2OCC[C@H](NC(=O)[C@H](C)NC)C(=O)N2[C@@H]1C(=O)NC(c1ccccc1)c1ccccc1 [Compound 50, (4S)-8,8-diallyl-N-benzhydryl-4-((S)-2-(methylamino)propanamido)-5-oxooctahydropyrrolo[2,1-b][1,3]oxazepine-7-carboxamide hydrochloride]",B (B=26-50% viability)
2,"C=CCC1(CC=C)C[C@@H]2OCC[C@H](NC(=O)[C@H](C)NC)C(=O)N2[C@@H]1C(=O)NC(c1ccccc1)c1ccccc1 [Compound 48, (4S)-8,8-diallyl-N-benzhydryl-4-((S)-2-(methylamino)propanamido)-5-oxooctahydropyrrolo[2,1-b][1,3]oxazepine-7-carboxamide hydrochloride]",C (C=>50% viability)
3,"CCC1(CC)C[C@@H]2SCC[C@H](NC(=O)[C@H](C)NC)C(=O)N2[C@@H]1C(=O)N[C@@H]1CCCc2ccccc21 [Compound 39, (4S,9aS)-8,8-diethyl-4-((S)-2-(methylamino)propanamido)-5-oxo-N—((R)-1,2,3,4-tetrahydronaphthalen-1-yl)octahydropyrrolo[2,1-b][1,3]thiazepine-7-carboxamide hydrochloride]",B (B=26-50% viability)
4,"CN[C@@H](C)C(=O)N[C@H]1CCO[C@H]2CC(CCc3ccccc3)(CCc3ccccc3)[C@@H](C(=O)N[C@@H]3CCCc4ccccc43)N2C1=O [Compound 25, (4S,9aS)-4-((S)-2-(methylamino)propanamido)-5-oxo-8,8-diphenethyl-N—((R)-1,2,3,4-tetrahydronaphthalen-1-yl)octahydropyrrolo[2,1-b][1,3]oxazepine-7-carboxamide hydrochloride]",B (B=26-50% viability)
5,"C=CCC1(CC=C)C[C@@H]2OCC[C@H](NC(=O)[C@H](C)NC)C(=O)N2[C@@H]1C(=O)NC(c1ccccc1)c1ccccc1 [Compound 49, (4S)-8,8-diallyl-N-benzhydryl-4-((S)-2-(methylamino)propanamido)-5-oxooctahydropyrrolo[2,1-b][1,3]oxazepine-7-carboxamide hydrochloride]",B (B=26-50% viability)
6,"CCC1(CC)C[C@@H]2SCC[C@H](NC(=O)[C@H](C)NC)C(=O)N2[C@@H]1C(=O)N[C@@H]1CCCc2ccccc21 [Compound 37, (4S,9aS)-8,8-diethyl-4-((S)-2-(methylamino)propanamido)-5-oxo-N—((R)-1,2,3,4-tetrahydronaphthalen-1-yl)octahydropyrrolo[2,1-b][1,3]thiazepine-7-carboxamide hydrochloride]",B (B=26-50% viability)
7,"C=CCC1C[C@@H]2SCC[C@H](NC(=O)[C@H](C)NC)C(=O)N2[C@@H]1C(=O)N[C@@H]1CCCc2ccccc21 (stereo partly drawn) [Compound 27, (4S,9aS)-8,8-allyl-4-((S)-2-(methylamino)propanamido)-5-oxo-N—((R)-1,2,3,4-tetrahydronaphthalen-1-yl)octahydropyrrolo[2,1-b][1,3]thiazepine-7-carboxamide hydrochloride]",B (B=26-50% viability)
8,"C=CCC1C[C@@H]2SCC[C@H](NC(=O)[C@H](C)NC)C(=O)N2[C@@H]1C(=O)N[C@@H]1CCCc2ccccc21 (stereo partly drawn) [Compound 30, (4S,9aS)-8,8-allyl-4-((S)-2-(methylamino)propanamido)-5-oxo-N—((R)-1,2,3,4-tetrahydronaphthalen-1-yl)octahydropyrrolo[2,1-b][1,3]thiazepine-7-carboxamide hydrochloride]",B (B=26-50% viability)

# Same assay, conditions: Homo sapiens, SK-OV-3, 10 micromolar test compound; SKOV-3 cells
row,Compound,viability at 10 µM [%]
1,"CN[C@@H](C)C(=O)N[C@H]1Cc2ccc(OC)cc2[C@H]2CC(C)(C)C(C(=O)NC(c3ccccc3)c3ccccc3)N2C1=O (single isomer, unassigned) [Compound 6, hydrochloride]",26 to 50
2,"CN[C@@H](C)C(=O)N[C@H]1CCOC2c3ccncc3C(C(=O)N[C@@H]3CCCc4ccccc43)N2C1=O (stereo partly drawn) [Compound 4, (4S)-4-((S)-2-(methylamino)propanamido)-5-oxo-N—((R)-1,2,3,4-tetrahydronaphthalen-1-yl)-2,3,4,5,7,11b-hexahydropyrido[4′,3′:3,4]pyrrolo[2,1-b][1,3]oxazepine-7-carboxamide dihydrochloride]",> 50
3,"CCC1C[C@@H]2OCC[C@H](NC(=O)[C@H](C)NC)C(=O)N2C1C(=O)N[C@@H]1CCCc2ccccc21 (stereo partly drawn) [Compound 20, (4S)-8,8-ethyl-4-((S)-2-(methylamino)propanamido)-5-oxo-N—((R)-1,2,3,4-tetrahydronaphthalen-1-yl)octahydropyrrolo[2,1-b][1,3]oxazepine-7-carboxamide hydrochloride]",26 to 50
4,"CCC1(CC)C[C@@H]2OCC[C@H](NC(=O)[C@H](C)NC)C(=O)N2[C@H]1C(=O)N[C@@H]1CCCc2ccccc21 [Compound 19, (4S)-8,8-diethyl-4-((S)-2-(methylamino)propanamido)-5-oxo-N—((R)-1,2,3,4-tetrahydronaphthalen-1-yl)octahydropyrrolo[2,1-b][1,3]oxazepine-7-carboxamide hydrochloride]",26 to 50
5,"CN[C@@H](C)C(=O)N[C@H]1CCS[C@H]2CC(C)(C)[C@@H](C(=O)N[C@H](CCC(=O)O)c3ccccc3)N2C1=O [Compound 77, (R)-4-((4S,7S,9aS)-8,8-dimethyl-4-((S)-2-(methylamino)propanamido)-5-oxooctahydropyrrolo[2,1-b][1,3]thiazepine-7-carboxamido)-4-phenylbutanoic acid hydrochloride]",26 to 50
6,"C=CCC1C[C@@H]2OCC[C@H](NC(=O)[C@H](C)NC)C(=O)N2[C@@H]1C(=O)NC(c1ccccc1)c1ccccc1 (stereo partly drawn) [Compound 53, (4S)-8,8-allyl-N-benzhydryl-4-((S)-2-(methylamino)propanamido)-5-oxooctahydropyrrolo[2,1-b][1,3]oxazepine-7-carboxamide hydrochloride]",26 to 50
7,"CN[C@@H](C)C(=O)N[C@H]1CCS[C@H]2CC(C)(C)[C@@H](C(=O)N[C@H]3c4ccccc4C[C@H]3OCCF)N2C1=O [Compound 78, (4S,7S,9aS)—N-((1S,2R)-2-(2-fluoroethoxy)-2,3-dihydro-1H-inden-1-yl)-8,8-dimethyl-4-((S)-2-(methylamino)propanamido)-5-oxooctahydropyrrolo[2,1-b][1,3]thiazepine-7-carboxamide hydrochloride]",0 to 25
8,"CN[C@@H](C)C(=O)N[C@H]1Cc2cc(OC)ccc2[C@H]2CC(C)(C)C(C(=O)NC(c3ccccc3)c3ccccc3)N2C1=O (stereo partly drawn) [Compound 5, (6S,11bR)—N-benzhydryl-9-methoxy-2,2-dimethyl-6-((S)-2-(methylamino)propanamido)-5-oxo-2,3,5,6,7,11b-hexahydro-1H-benzo[c]pyrrolo[1,2-a]azepine-3-carboxamide]",> 50
9,"CN[C@@H](C)C(=O)N[C@H]1CCO[C@H]2CC(C)(C)[C@@H](CN[C@@H]3CCOc4ccccc43)N2C1=O [Compound 73, (S)—N-((4S,7S,9aS)-7-((((R)-chroman-4-yl)amino)methyl)-8,8-dimethyl-5-oxooctahydropyrrolo[2,1-b][1,3]oxazepin-4-yl)-2-(methylamino)propanamide dihydrochloride]",26 to 50
10,"CN[C@@H](C)C(=O)N[C@H]1CCO[C@H]2CC(CCc3ccccc3)(CCc3ccccc3)[C@@H](C(=O)NC(c3ccccc3)c3ccccc3)N2C1=O [Compound 62, (4S)—N-benzhydryl-4-((S)-2-(methylamino)propanamido)-5-oxo-8,8-diphenethyloctahydropyrrolo[2,1-b][1,3]oxazepine-7-carboxamide hydrochloride]",> 50
11,"C=CCC1(CC=C)C[C@@H]2OCC[C@H](NC(=O)[C@H](C)NC)C(=O)N2C1C(=O)N[C@@H]1CCCc2ccccc21 (stereo partly drawn) [Compound 12, (4S,9aS)-8,8-diallyl-4-((S)-2-(methylamino)propanamido)-5-oxo-N—((R)-1,2,3,4-tetrahydronaphthalen-1-yl)octahydropyrrolo[2,1-b][1,3]oxazepine-7-carboxamide hydrochloride]",26 to 50
12,"CN[C@@H](C)C(=O)N[C@H]1Cc2c([nH]c3ccccc23)[C@H]2CC(C)(C)C(C(=O)N[C@@H]3CCCc4ccccc43)N2C1=O (stereo in doubt) [Compound 3, (3S, 6S,12bR)-2,2-dimethyl-6-((S)-2-(methylamino)propanamido)-5-oxo-N—((R)-1,2,3,4-tetrahydronaphthalen-1-yl)-1,2,3,5,6,7,12,12b-octahydropyrrolo[1′,2′:1,2]azepino[3,4-b]indole-3-carboxamide hydrochloride]",> 50
13,"CN[C@@H](C)C(=O)N[C@H]1CCO[C@H]2CC(CCc3ccccc3)(CCc3ccccc3)[C@H](C(=O)N[C@@H]3CCCc4ccccc43)N2C1=O [Compound 22, (4S,9aS)-4-((S)-2-(methylamino)propanamido)-5-oxo-8,8-diphenethyl-N—((R)-1,2,3,4-tetrahydronaphthalen-1-yl)octahydropyrrolo[2,1-b][1,3]oxazepine-7-carboxamide hydrochloride]",0 to 25
